The source of these data is ChEMBL document CHEMBL4052728, “Diaminopimelic acid (DAP) analogs bearing isoxazoline moiety as selective inhibitors against meso-diaminopimelate dehydrogenase (m-Ddh) from Porphyromonas gingivalis” (Bioorg Med Chem Lett, 2017).

For data set [1], the system named is Porphyromonas gingivalis. Kind of data set: Antibacterial activity against Porphyromonas gingivalis ATCC 33277 after 24 hrs by broth microdilution method. It is filed as functional. The note with it: ATCC 33277, 24 h. (Dilution methods test growth across graded concentrations, often in twofold steps.)
Data set [2] deals with Staphylococcus aureus. The data set can be described thus: Growth inhibition of Staphylococcus aureus N315 up to 3 mM after 24 hrs by broth microdilution method.
For data set [3], the target named is T1, Meso-diaminopimelate D-dehydrogenase (Porphyromonas gingivalis (strain ATCC BAA-308 / W83), UniProt Q7MW40).
T1 sequence (Q7MW40 whole entry): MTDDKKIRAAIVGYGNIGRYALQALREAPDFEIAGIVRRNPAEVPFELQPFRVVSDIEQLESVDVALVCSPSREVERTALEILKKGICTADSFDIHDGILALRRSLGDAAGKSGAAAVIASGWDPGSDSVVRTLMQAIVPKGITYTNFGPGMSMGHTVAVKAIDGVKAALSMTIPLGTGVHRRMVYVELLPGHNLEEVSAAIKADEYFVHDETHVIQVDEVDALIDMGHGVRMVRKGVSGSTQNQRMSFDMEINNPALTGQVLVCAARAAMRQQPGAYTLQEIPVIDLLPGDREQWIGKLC
The data set can be described thus: Inhibition of Porphyromonas gingivalis m-Ddh expressed in Escherichia coli BL21 (DE3) pLysS at pH 7.8 using meso-diaminopimelate as substrate by spectrophotometric method.

Data set [4] deals with Fusobacterium nucleatum. The data set can be described thus: Growth inhibition of Fusobacterium nucleatum ATCC 25586 up to 3 mM after 24 hrs by broth microdilution method.
Data set [5] deals with Porphyromonas gingivalis. Kind of data set: Antibacterial activity against Porphyromonas gingivalis W83 after 24 hrs by broth microdilution method. It is filed as functional. The note with it: W83, 24 h.
The target of data set [6] is T1, Meso-diaminopimelate D-dehydrogenase. The data set can be described thus: Inhibition of Porphyromonas gingivalis m-Ddh expressed in Escherichia coli BL21 (DE3) pLysS at pH 10.5 using meso-diaminopimelate as substrate by spectrophotometric method.
Data set [7] deals with T2, Meso-diaminopimelate D-dehydrogenase (Porphyromonas gingivalis (strain ATCC BAA-308 / W83)) (UniProt Q7MW40).
T2 sequence (whole entry): T1 sequence (Q7MW40 whole entry)
Kind of data set: Inhibition of Porphyromonas gingivalis m-Ddh expressed in Escherichia coli BL21 (DE3) pLysS up to 3 mM at pH 10.5 using meso-diaminopimelate as substrate by spectrophotometric method.

Data set [8] has as its target T2, Meso-diaminopimelate D-dehydrogenase (Porphyromonas gingivalis (strain ATCC BAA-308 / W83)). Kind of data set: Inhibition of Porphyromonas gingivalis m-Ddh expressed in Escherichia coli BL21 (DE3) pLysS up to 1 mM at pH 7.8 using meso-diaminopimelate as substrate by spectrophotometric method.

SMILES strings stand for the structures. ≈ marks a conversion by molar mass, not a printed value. Calls of active or inactive are those of the source. No cut-off for these calls is given here.

With `N[C@@H](C[C@H]1CC(C(=O)O)=NO1)C(=O)O`, the MIC (commonly the least concentration at which growth counts as inhibited) in data set [1] was 1880 µM (≈ 379 µg/mL); in data set [5], 773 µM (≈ 156 µg/mL). Further, the “growth inhibition (GI)” value in data set [2] and in data set [4] was “Non-Toxic” in each case. Moreover, the IC50 (usually the concentration needed to halve the response being measured) worked out at 14.9 µM in data set [3] and 211 µM in data set [6].
As to `N[C@@H](C[C@@H]1CC(C(=O)O)=NO1)C(=O)O`, the inhibition entry in data set [7] and in data set [8] was “inactive” in each case.
